Data as given in patent US5340565A, “Tumor or cancer cell killing therapy and agents useful therefor” (priority 1992, dated 1994).
Where two headings read alike, the source gives them in different places.

Assays:
ADPRT = conditions: Sims et al, Biochem. 21:1813-1821, 1982; cited from earlier work
[1] = test system: human squamous cell carcinoma (SCC) (ABII) of the head and neck xeno-grafted to nude mice; assay: Growth of human SCC (ABII) xenografted to nude mice, CDDP with or without metoclopramide; type: in vivo; conditions: for Reduction in AUC (area under plotted tumor growth curves), agent given alone: schedules A and B, metoclopramide 2.0 mg/kg i.p. (x1 or x3), CDDP 7.5 mg/kg i.p.
Method: Cisplatin (cis-diamine-dichloroplatinum=CDDP) is a heavy metal complex with alkylating properties which allow bifunctional linking to DNA. CDDP has been used successfully as a chemotherapeutic agent to treat several types of human cancers. Since CDDP treatment regimes induce nausea and vomiting, metoclopramide is often co-administered therewith as an antiemetic drug.
Two administration schedules were tested: (A) metoclopramide (2.0 mg/kg i.p.) one hour before CDDP (7.5 mg/kg i.p.) and (B) metoclopramide (2.0 mg/kg×3 treatment times) given separately concomitant to CDDP (7.5 mg/kg i.p.) and 24 hr and 48 hr after CDDP administration. In both schedules the combined treatment was compared with CDDP alone, metoclopramide alone and with physiologic saline treated tumor bearing animals (controls). The tumor line used was a poorly difterentiated human SSC originating from the nose. There were n=10 animals in each group. Tumor diameters and animal weight were recorded and plotted twice weekly for 21 days. Treatment efficacies were compared using the area under the plotted growth curves (AUC).

[2] = test system: ADPRT (adenosine diphosphate ribosyl transferase); assay: ADPRT activity in permeabilized HML after 30 min exposure; type: cell-based, human; conditions: average of duplicates
Method: The data were recorded as cpm TCA precipitable [^3 H]NAD per 1×10^6 cells.

[3] = Cytotoxicity by trypan blue exclusion in HML; type: cell-based; conditions: human, mononuclear leukocytes
[4] = test system: Human mononuclear leukocytes (HML); assay: Cytotoxicity by trypan blue exclusion in HML; type: cell-based; conditions: for % Dead Cells 30 min: 0.5 h
[5] = test system: adenocarcinoma transplanted in C3H mice; conditions: dose of 10 mg/kg, Kjellen and Pero 1987 abstract; cited from earlier work
calmodulin = conditions: cited from earlier work
[6] = 100 μM agent, 30 min incubation, HML, read-out: % Dead Cells 30 min
[7] = 500 μM agent, 30 min incubation, HML, read-out: % Dead Cells 30 min

Question: With `Nc1cccc(C(=O)O)c1` [3-aminobenzoic acid] as the compound, how does the “Inhibition of ADPRT” value (ADPRT) read?
Answer: failed to inhibit ADPRT

Question: With `Nc1ccc(C(=O)O)cn1` [6-amino nicotinic acid] as the compound, how does the “Inhibition of ADPRT” value (ADPRT) read?
Answer: failed to inhibit ADPRT

Question: With `N.N.[Cl][Pt][Cl]` [CDDP, cis-diamine-dichloroplatinum] as the compound, how does the “AUC as % of control tumor growth” value ([1]; schedule B: CDDP 7.5 mg/kg i.p., metoclopramide 2.0 mg/kg x3 (concomitant, 24 hr, 48 hr), 21 days) read?
Answer: 72 % of control tumor growth

Question: And the “Reduction in AUC (area under plotted tumor growth curves), agent given alone” value ([1]; 21 days)?
Answer: significant reduction of AUC-values

Question: Which “ADPRT Activity” value ([2]; 100 μM agent) does the source give for `CN(C)CCCN1c2ccccc2Sc2ccc(Cl)cc21` [Chlorpromazine, 2chloro-N,N-dimethyl-10H-phenothiazine-10-propanamine] here?
Answer: 1508 cpm TCA precipitable [3H]NAD p

Question: What about the “ADPRT Activity” value ([2]; 500 μM agent) of the same compound?
Answer: 890 cpm TCA precipitable [3H]NAD p

Question: What about the cytotoxicity at 0.5 h, 100 µM [3, 6] of the same compound?
Answer: 50%

Question: What about the cytotoxicity at 0.5 h, 500 µM [3, 7] of the same compound?
Answer: 100%

Question: For `CC(CN1CCN(CCOCCO)CC1)CN1c2ccccc2Sc2ccccc21` (centres unmarked) [Dixyrazine], which “ADPRT Activity” value ([2]; 100 μM agent) is on record?
Answer: 385 cpm TCA precipitable [3H]NAD p

Question: What about the “ADPRT Activity” value ([2]; 500 μM agent) of the same compound?
Answer: 850 cpm TCA precipitable [3H]NAD p

Question: And the cytotoxicity at 0.5 h, 100 µM [3, 6]?
Answer: 13%

Question: And the cytotoxicity at 18 h, 100 µM ([3]; 100 μM agent, 18 hr incubation, HML, read-out: % Dead Cells 18 hr)?
Answer: 78%

Question: What about the cytotoxicity at 0.5 h, 500 µM [3, 7] of the same compound?
Answer: 79%

Question: What about the cytotoxicity at 18 h, 500 µM ([3]; 500 μM agent, 18 hr incubation, HML, read-out: % Dead Cells 18 hr) of the same compound?
Answer: 100%

Question: Which results are given for `OO` [H2 O2]?
Answer: ADPRT Activity ([2]; 100 μM agent): 1800 cpm TCA precipitable [3H]NAD p; ADPRT Activity ([2]; 300 μM agent): 2700 cpm TCA precipitable [3H]NAD p; ADPRT Activity ([2]; 500 μM agent): 2900 cpm TCA precipitable [3H]NAD p; ADPRT Activity ([2]; 1000 μM agent): 3000 cpm TCA precipitable [3H]NAD p; % Dead Cells 30 min ([4]; 100 µM): 5%; % Dead Cells 30 min ([4]; 300 µM): 5%; % Dead Cells 30 min ([4]; 500 µM): 7%; % Dead Cells 30 min ([4]; 1000 µM): 12%; % Dead Cells 18 hr ([4]; 100 µM): 40%; % Dead Cells 18 hr ([4]; 300 µM): 41%; % Dead Cells 18 hr ([4]; 500 µM): 55%; % Dead Cells 18 hr ([4]; 1000 µM): 71%

Question: With `CCN(CC)CCNC(=O)c1cc(Cl)c(N)cc1OC` [Metoclopramide, 4-amino-5-chloro-N-[(2-diethylamino)ethyl]-2-methoxy-benzamide] as the compound, how does the “Effect of adding metoclopramide to CDDP on AUC” value ([1]; schedule A: metoclopramide 2.0 mg/kg i.p. one hour before CDDP 7.5 mg/kg i.p.) read?
Answer: did not give any additive effect

Question: What about the “Effect of adding metoclopramide to CDDP on AUC” value ([1]; schedule B: metoclopramide 2.0 mg/kg x3, concomitant to CDDP 7.5 mg/kg i.p. and 24 hr and 48 hr after) of the same compound?
Answer: potentiated the effect of CDDP

Question: And the “Reduction in AUC (area under plotted tumor growth curves), agent given alone” value ([1]; 21 days)?
Answer: In neither schedule A nor B did metoclopramide alone induce any significant reduction in AUC

Question: And the “ADPRT Activity” value ([2]; 500 μM agent)?
Answer: 530 cpm TCA precipitable [3H]NAD p

Question: And the “ADPRT Activity” value ([2]; 2000 μM agent)?
Answer: 703 cpm TCA precipitable [3H]NAD p

Question: What about the “ADPRT Activity” value ([2]; 5000 μM agent) of the same compound?
Answer: 950 cpm TCA precipitable [3H]NAD p

Question: What about the “ADPRT Activity” value ([2]; 10000 μM agent) of the same compound?
Answer: 870 cpm TCA precipitable [3H]NAD p

Question: What about the cytotoxicity at 0.5 h, 500 µM [3] of the same compound?
Answer: 7%

Question: And the cytotoxicity at 0.5 h, 2000 µM [3]?
Answer: 13%

Question: And the cytotoxicity at 0.5 h, 5000 µM [3]?
Answer: 10%

Question: And the cytotoxicity at 0.5 h, 10000 µM [3]?
Answer: 22%

Question: And the cytotoxicity at 18 h, 500 µM [3]?
Answer: 8%

Question: And the cytotoxicity at 18 h, 2000 µM [3]?
Answer: 29%

Question: What about the cytotoxicity at 18 h, 5000 µM [3] of the same compound?
Answer: 58%

Question: What about the cytotoxicity at 18 h, 10000 µM [3] of the same compound?
Answer: 88%

Question: With `Cc1ccc(C2(O)CCN(CCCC(=O)c3ccc(F)cc3)CC2)cc1` [Moperone, 1(4-fluorophenyl)-4-[4-hydroxy-4(4-methylphenyl)1-piperidinyl]-1-butanone] as the compound, how does the “ADPRT Activity” value ([2]; 100 μM agent) read?
Answer: 529 cpm TCA precipitable [3H]NAD p

Question: And the “ADPRT Activity” value ([2]; 500 μM agent)?
Answer: 712 cpm TCA precipitable [3H]NAD p

Question: What about the “ADPRT Activity” value ([2]; 1000 μM agent) of the same compound?
Answer: 1112 cpm TCA precipitable [3H]NAD p

Question: And the cytotoxicity at 0.5 h, 100 µM [3, 6]?
Answer: 5%

Question: And the cytotoxicity at 0.5 h, 500 µM [3, 7]?
Answer: 7%

Question: And the cytotoxicity at 0.5 h, 1000 µM ([3]; 1000 μM agent, 30 min incubation, HML, read-out: % Dead Cells 30 min)?
Answer: 26%

Question: And the cytotoxicity at 18 h, 1000 µM ([3]; 1000 μM agent, 18 hr incubation, HML, read-out: % Dead Cells 18 hr)?
Answer: 100%

Question: For `NC(=O)c1cccnc1` [Nicotinamide], which Radiosensitization of adenocarcinoma [5] is on record?
Answer: will radiosensitize

Question: What does the source list for `CC(CN(C)C)CN1c2ccccc2Sc2ccccc21` (centres unmarked) [Trimeprazine]?
Answer: ADPRT Activity ([2]; 100 μM agent): 639 cpm TCA precipitable [3H]NAD p; ADPRT Activity ([2]; 500 μM agent): 571 cpm TCA precipitable [3H]NAD p; cytotoxicity at 0.5 h, 500 µM [3]: 95%; cytotoxicity at 0.5 h, 100 µM [3, 6]: 7%

Question: What does the source list for `NCCCCCCNS(=O)(=O)c1cccc2ccccc12` [W-5, N(6-aminohexyl)-naphthalenesulfonamide]?
Answer: ADPRT Activity ([2]; 50 μM agent): 395 cpm TCA precipitable [3H]NAD p; ADPRT Activity ([2]; 100 μM agent): 415 cpm TCA precipitable [3H]NAD p; ADPRT Activity ([2]; 200 μM agent): 425 cpm TCA precipitable [3H]NAD p; Calmodulin antagonist activity at fixed concentration (calmodulin; 50 μM): inactive; IC50 (calmodulin; Hidaka et al, Proc. Natl. Acad. Sci. U.S.A. 78:4354-4357, 1981, read-out: IC50 dose as calmodulin antagonist): ~250 µM; cytotoxicity at 0.5 h, 50 µM ([3]; 50 μM agent, 30 min incubation, HML, read-out: % Dead Cells 30 min): < 5%; cytotoxicity at 0.5 h, 100 µM [3, 6]: < 5%; cytotoxicity at 0.5 h, 200 µM ([3]; 200 μM agent, 30 min incubation, HML, read-out: % Dead Cells 30 min): 7%

Question: With `NCCCCCCNS(=O)(=O)c1cccc2c(Cl)cccc12` [W-7, N(6-aminohexyl)-5-chloro-1-naphthalenesulfonamide] as the compound, how does the “ADPRT Activity” value ([2]; 50 μM agent) read?
Answer: 750 cpm TCA precipitable [3H]NAD p

Question: And the “ADPRT Activity” value ([2]; 100 μM agent)?
Answer: 910 cpm TCA precipitable [3H]NAD p

Question: What about the “ADPRT Activity” value ([2]; 200 μM agent) of the same compound?
Answer: 1480 cpm TCA precipitable [3H]NAD p

Question: And the cytotoxicity at 0.5 h, 50 µM [3]?
Answer: 10%

Question: And the cytotoxicity at 0.5 h, 100 µM [3]?
Answer: 25%

Question: What about the cytotoxicity at 0.5 h, 200 µM [3] of the same compound?
Answer: 90%

Question: For `NC(=O)c1ccccc1` [benzamide], which Radiosensitization of adenocarcinoma [5] is on record?
Answer: totally ineffective

Question: Which “Inhibition of ADPRT” value (ADPRT) does the source give for `O=C(O)c1ccccc1` [benzoic acid] here?
Answer: failed to inhibit ADPRT

Question: With `O=C(O)c1ccncc1` [isonicotinic acid] as the compound, how does the “Inhibition of ADPRT” value (ADPRT) read?
Answer: failed to inhibit ADPRT

Question: With pyrazine 1,2-dicarboxylic acid as the compound, how does the “Inhibition of ADPRT” value (ADPRT) read?
Answer: failed to inhibit ADPRT
